Laboratory results from the supplement of paper PMC10307832.

What was measured:
Assay in all cases: relative viability (nuclei count vs DMSO), 5 days (fraction); higher = more cells survive
Carfilzomib + Navitoclax = compound: CC(C)C[C@H](NC(=O)[C@H](CCc1ccccc1)NC(=O)CN1CCOCC1)C(=O)N[C@@H](Cc1ccccc1)C(=O)N[C@@H](CC(C)C)C(=O)[C@@]1(C)CO1 [Carfilzomib] + CC1(C)CCC(c2ccc(Cl)cc2)=C(CN2CCN(c3ccc(C(=O)NS(=O)(=O)c4ccc(N[C@H](CCN5CCOCC5)CSc5ccccc5)c(S(=O)(=O)C(F)(F)F)c4)cc3)CC2)C1 [Navitoclax] (partner 0.5 µM)
Summary of the method: (§1)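 Relative viability equals treated-well nuclei counts divided by vehicle-well nuclei counts. Counts came from 4× images of lung cancer cell lines grown in 1536-well plates for 5 days after pin-tool dosing on the day after seeding. Dosing used one drug alone or a fixed anchor-drug dose plus five library-drug doses (not always all listed) in √10 steps, and values are medians of duplicate plates.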

Olaparib + Dasatinib = compound: O=C(c1cc(Cc2n[nH]c(=O)c3ccccc23)ccc1F)N1CCN(C(=O)C2CC2)CC1 [Olaparib] + Cc1nc(Nc2ncc(C(=O)Nc3c(C)cccc3Cl)s2)cc(N2CCN(CCO)CC2)n1 [Dasatinib] (partner 0.075 µM)
Summary of the method: as §1

Carfilzomib + Linsitinib = compound: CC(C)C[C@H](NC(=O)[C@H](CCc1ccccc1)NC(=O)CN1CCOCC1)C(=O)N[C@@H](Cc1ccccc1)C(=O)N[C@@H](CC(C)C)C(=O)[C@@]1(C)CO1 [Carfilzomib] + C[C@]1(O)C[C@@H](c2nc(-c3ccc4ccc(-c5ccccc5)nc4c3)c3c(N)nccn32)C1 [Linsitinib] (partner 1 µM)
Summary of the method: as §1

Olaparib + OSI-027 = compound: O=C(c1cc(Cc2n[nH]c(=O)c3ccccc23)ccc1F)N1CCN(C(=O)C2CC2)CC1 [Olaparib] + COc1cccc2cc(-c3nc([C@H]4CC[C@H](C(=O)O)CC4)n4ncnc(N)c34)[nH]c12 [OSI-027] (partner 0.5 µM)
Summary of the method: as §1

| Cell Line | relative viability (Carfilzomib + Navitoclax; first compound 0.001 µM) | relative viability (Carfilzomib + Navitoclax; first compound 0.003162 µM) | relative viability (Carfilzomib + Navitoclax; first compound 0.01 µM) | relative viability (Carfilzomib + Navitoclax; first compound 0.03162 µM) | relative viability (Carfilzomib + Navitoclax; first compound 0.1 µM) | relative viability (Olaparib + Dasatinib; first compound 0.08 µM) | relative viability (Olaparib + Dasatinib; first compound 0.253 µM) | relative viability (Olaparib + Dasatinib; first compound 2.53 µM) | relative viability (Olaparib + Dasatinib; first compound 8 µM) | relative viability (Carfilzomib + Linsitinib; first compound 0.001 µM) | relative viability (Carfilzomib + Linsitinib; first compound 0.003162 µM) | relative viability (Carfilzomib + Linsitinib; first compound 0.01 µM) | relative viability (Carfilzomib + Linsitinib; first compound 0.03162 µM) | relative viability (Carfilzomib + Linsitinib; first compound 0.1 µM) | relative viability (Olaparib + OSI-027; first compound 0.08 µM) | relative viability (Olaparib + OSI-027; first compound 0.253 µM) | relative viability (Olaparib + OSI-027; first compound 2.53 µM) | relative viability (Olaparib + OSI-027; first compound 8 µM) |
| --- | --- | --- | --- | --- | --- | --- | --- | --- | --- | --- | --- | --- | --- | --- | --- | --- | --- | --- |
| HCC-366 | 1.02 | 0.98 | 0.956 | 1.03 | 0.0374 | 0.484 | 0.503 | 0.498 | 0.253 | 0.657 | 0.666 | 0.611 | 0.557 | 0.0209 | 0.856 | 0.796 | 0.762 | 0.568 |
| HCC-827 | 0.983 | 1.05 | 1.03 | 0.907 | 0.369 | 0.27 | 0.315 | 0.387 | 0.281 | 0.941 | 0.979 | 1.05 | 0.848 | 0.406 | 0.772 | 0.732 | 0.872 | 0.65 |
| HOP-62 | 1.1 | 1.11 | 0.887 | 0.167 | 0.107 | 0.691 | 0.563 | 0.579 | 0.492 | 0.991 | 0.992 | 0.924 | 0.133 | 0.0627 | 0.863 | 0.801 | 0.809 | 0.712 |
| IA-LM | 0.851 | 0.815 | 0.879 | 0.0554 | 0.01 | – | – | – | – | 0.58 | 0.687 | 0.836 | 0.0717 | 0.0278 | – | – | – | – |
| LC-2-ad | 0.568 | 0.452 | 0.407 | 0.227 | 0.135 | 0.99 | 0.454 | 0.472 | 0.491 | 0.879 | 0.907 | 0.907 | 0.462 | 0.151 | 0.926 | 0.731 | 0.856 | 0.796 |
| LCLC-97TM1 | 0.285 | 0.47 | 0.478 | 0.171 | 0.128 | 0.871 | 0.789 | 0.857 | 0.776 | 0.205 | 0.178 | 0.207 | 0.119 | 0.127 | 0.525 | 0.527 | 0.587 | 0.323 |
| LCLC-103H | – | – | – | – | – | 0.61 | 0.49 | 0.445 | 0.532 | 0.951 | 0.882 | 1.06 | 1.11 | 0.296 | 0.52 | 0.432 | 0.512 | 0.412 |
| LK-2 | 0.845 | 0.907 | 0.879 | 0.209 | 0.175 | 0.27 | 0.329 | 0.271 | 0.225 | 0.815 | 0.837 | 0.497 | 0.18 | 0.177 | 0.2 | 0.193 | 0.189 | 0.175 |
| LOU-NH91 | 0.703 | 0.832 | 0.42 | 0.19 | 0.204 | 0.6 | 0.473 | 0.525 | 0.589 | 1.01 | 1.14 | 0.67 | 0.334 | 0.298 | 0.764 | 0.638 | 0.764 | 0.729 |
| LU99A | 0.738 | 0.898 | 0.793 | 0.581 | 0.183 | 0.624 | 0.467 | 0.506 | 0.228 | 0.547 | 0.514 | 0.508 | 0.225 | 0.159 | 0.31 | 0.274 | 0.288 | 0.258 |
| LXF-289 | 0.915 | 0.974 | 0.935 | 0.0853 | 0.0461 | 0.217 | 0.172 | 0.196 | 0.171 | 1 | 1.03 | 0.982 | 0.097 | 0.083 | 0.955 | 0.761 | 0.759 | 0.755 |
| NCI-H358 | – | – | – | – | – | 0.152 | 0.181 | 0.167 | 0.146 | 0.793 | 0.977 | 0.717 | 0.15 | 0.16 | 0.648 | 0.727 | 0.727 | 0.588 |
| NCI-H522 | – | – | – | – | – | 0.913 | 0.884 | 0.846 | 0.782 | – | – | – | – | – | 0.783 | 0.659 | 0.723 | 0.642 |
| NCI-H650 | – | – | – | – | – | 0.478 | 0.428 | 0.424 | 0.372 | 0.389 | 1.19 | 0.958 | 0.27 | 0.176 | 0.631 | 0.498 | 0.5 | 0.414 |
| NCI-H661 | – | – | – | – | – | 0.801 | 0.769 | 0.7 | 0.715 | 0.501 | 0.851 | 0.552 | 0.424 | 0.171 | 0.7 | 0.61 | 0.708 | 0.621 |
| NCI-H1299 | 1.08 | 1.05 | 1.03 | 0.887 | 0.195 | – | – | – | – | 1.02 | 1.05 | 0.971 | 0.239 | 0.106 | – | – | – | – |
| NCI-H1563 | – | – | – | – | – | 0.485 | 0.516 | 0.465 | 0.42 | 1.19 | 1.26 | 1.25 | 1.2 | 0.586 | 0.75 | 0.745 | 0.806 | 0.753 |
| NCI-H1623 | – | – | – | – | – | 0.568 | 0.504 | 0.6 | 0.494 | – | – | – | – | – | 0.511 | 0.457 | 0.474 | 0.42 |
| NCI-H1648 | – | – | – | – | – | – | – | – | – | – | – | – | – | – | – | 0.25 | – | 0.223 |
| NCI-H1650 | – | 1.09 | 1.24 | 0.1 | 0.119 | 0.313 | 0.342 | 0.287 | 0.285 | – | – | – | – | – | 0.842 | 0.515 | 0.72 | 0.816 |
| NCI-H1703 | 1.13 | 1.17 | 0.164 | 0.151 | 0.102 | – | – | – | – | 0.91 | 1.22 | 0.44 | 0.132 | 0.0996 | – | – | – | – |
| NCI-H2170 | 0.698 | 0.688 | 0.617 | 0.409 | 0.197 | 0.471 | 0.629 | 0.47 | 0.638 | – | – | – | – | – | 0.809 | 0.685 | 0.679 | 0.694 |
| NCI-H2342 | – | – | – | – | – | 0.293 | 0.262 | 0.312 | 0.293 | – | – | – | – | – | 0.565 | 0.54 | 0.55 | 0.564 |
| SW 900 | – | – | – | – | – | 0.57 | 0.815 | 0.624 | 0.615 | – | – | – | – | – | 0.693 | 0.561 | 0.565 | 0.458 |
